We go through 14 molecules from US20250339569A1, “CARBONIC ANHYDRASE IX LIGANDS” (priority 2021, published 2025).

Starred links: 1 amine or outer side, 2 acyl side, 3 side chain; linkers in the order of their positions; H or OH if unused. Positions of bridges follow the written chain, without caps; N, C: chain ends. Non-standard residues stand in square brackets, D forms with d. Residues, ends and D or L forms follow the SMILES beside them. Groups on a side chain read outwards from the residue. *: point of attachment. X63 = O=C1CC[C@@H](C(=O)Nc2cccc(C[C@H](N[*:1])C(=O)[*:2])c2)N1; X62 = O=C(Nc1cccc(C[C@H](N[*:1])C(=O)[*:2])c1)c1c[nH]cn1; DOTA = O=C(O)CN1CCN(CC(=O)O)CCN(CC(=O)*)CCN(CC(=O)O)CC1; X66 = NC(=O)CCC(=O)Nc1cccc(C[C@H](N[*:1])C(=O)[*:2])c1; X68 = CC1(C(=O)Nc2cccc(C[C@H](N[*:1])C(=O)[*:2])c2)CC1; X54 = O=C(Nc1cccc(C[C@H](N[*:1])C(=O)[*:2])c1)c1cnco1; X43 = CCC(=O)Nc1cccc(C[C@H](N[*:1])C(=O)[*:2])c1; Phe(4-NH2) = Nc1ccc(C[C@H](N)C(=O)O)cc1; mXylylene = c1cc(C[*:1])cc(C[*:2])c1; X2 = O=C(CN1CCC(N[*:1])CC1)[*:2]; X58 = CS(=O)(=O)c1ccc(CN*)cc1; 4Amb = NCc1ccc(C(=O)O)cc1; X42 = c1ccc2cc(CN*)ccc2c1; X64 = c1cc2cc(CN*)ccc2cn1; Dap = NC[C@H](N)C(=O)O; X70 = N#Cc1ccc(CN*)cc1; AEEA = NCCOCCOCC(=O)O; X45 = COCc1cc(CN*)on1; Propionyl = CCC(=O)* Some results are limits rather than exact numbers.

In one test the target is T1, CAIX-expressing human HT-29 colorectal cancer cells (Homo sapiens, UniProt Q16790).
T1 construct: CAIX-expressing human HT-29 colorectal cancer cells; host or cells: HT-29 human colorectal cancer cells
Nature of the test: FACS binding assay (IC50 determination, competition with tracer 3BP-2776 or 3BP-4149). The following applies: FACS binding assay, HT-29 cells, competition with tracer 3BP-2776 (10 nM, biotin-labeled), 4° C., 1 hour; read-out: pIC50 category (activity) (converted). Summed up: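 HT-29 cells in FACS buffer (PBS, 1% FCS) at 500.000 cells/ml were exposed to compounds competing with a labelled tracer, with biotinylated compounds detected by 1 μg/mL APC-streptavidin for 30 min on ice. APC/Cy5 median fluorescence was read by flow cytometry and IC50 derived by 4PL fit.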
`CC(C)C[C@@H]1NC(=O)[C@H](Cc2c[nH]c3ccccc23)NC(=O)[C@H](CCC(=O)NCc2ccc3ccccc3c2)NC(=O)[C@H]2CCCN2C(=O)[C@H](CCC(=O)O)NC(=O)[C@@H](NC(=O)[C@H](Cc2ccc(O)cc2)NC(=O)[C@@H](NC(=O)CN2CCC(NC(=O)CN3CCN(CC(=O)O)CCN(CC(=O)O)CCN(CC(=O)O)CC3)CC2)C(C)C)CSCc2cccc(c2)CSC[C@@H](C(N)=O)NC(=O)[C@H](CO)NC(=O)[C@H](Cc2c[nH]c3ccccc23)NC(=O)[C@H]([C@@H](C)O)NC1=O` [3BP-4215, DOTA-APAc-Val-Tyr-[Cys(3MeBn)-Glu-pro-Glu(NHMe2Nph)-Trp-Leu-Thr-Trp-Ser-Cys]-NH2] ({DOTA}-[X2]VYCE[dP]E(X42)WLTWSC-NH2; linker 4-13 via mXylylene): the IC50 was < 10 nM.
Still for that read-out and setting: the same measure for `CC(C)C[C@@H]1NC(=O)[C@H](Cc2cccc(NC(=O)C3(C)CC3)c2)NC(=O)[C@H](CC(=O)O)NC(=O)[C@H]2CCCN2C(=O)[C@H](CCC(=O)O)NC(=O)[C@@H](NC(=O)[C@H](Cc2ccc(O)cc2)NC(=O)[C@@H](NC(=O)CN2CCC(NC(=O)CN3CCN(CC(=O)O)CCN(CC(=O)O)CCN(CC(=O)O)CC3)CC2)C(C)C)CSCc2cccc(c2)CSC[C@@H](C(N)=O)NC(=O)[C@H](CO)NC(=O)[C@H](Cc2c[nH]c3ccccc23)NC(=O)[C@H]([C@@H](C)O)NC1=O` [3BP-4234] ({DOTA}-[X2]VYCE[dP]D[X68]LTWSC-NH2; linker 4-13 via mXylylene): < 10 nM; for `CCC(=O)Nc1cccc(C[C@@H]2NC(=O)[C@H](CC(=O)O)NC(=O)[C@H]3CCCN3C(=O)[C@H](CCC(=O)O)NC(=O)[C@@H](NC(=O)[C@H](Cc3ccc(O)cc3)NC(=O)[C@@H](NC(=O)CN3CCC(NC(=O)CN4CCN(CC(=O)O)CCN(CC(=O)O)CCN(CC(=O)O)CC4)CC3)C(C)C)CSCc3cccc(c3)CSC[C@@H](C(N)=O)NC(=O)[C@H](CO)NC(=O)[C@H](Cc3c[nH]c4ccccc34)NC(=O)[C@H]([C@@H](C)O)NC(=O)[C@H](CC(C)C)NC2=O)c1` [3BP-4235] ({DOTA}-[X2]VYCE[dP]D[X43]LTWSC-NH2; linker 4-13 via mXylylene): < 10 nM; for `CC(C)C[C@@H]1NC(=O)[C@H](Cc2cccc(NC(=O)CCC(N)=O)c2)NC(=O)[C@H](CC(=O)O)NC(=O)[C@H]2CCCN2C(=O)[C@H](CCC(=O)O)NC(=O)[C@@H](NC(=O)[C@H](Cc2ccc(O)cc2)NC(=O)[C@@H](NC(=O)CN2CCC(NC(=O)CN3CCN(CC(=O)O)CCN(CC(=O)O)CCN(CC(=O)O)CC3)CC2)C(C)C)CSCc2cccc(c2)CSC[C@@H](C(N)=O)NC(=O)[C@H](CO)NC(=O)[C@H](Cc2c[nH]c3ccccc23)NC(=O)[C@H]([C@@H](C)O)NC1=O` [3BP-4238] ({DOTA}-[X2]VYCE[dP]D[X66]LTWSC-NH2; linker 4-13 via mXylylene): 10 to 79.4 nM.
Same read-out and setting: the same measure for `CC(C)C[C@@H]1NC(=O)[C@H](Cc2cccc(NC(=O)c3cnco3)c2)NC(=O)[C@H](CC(=O)O)NC(=O)[C@H]2CCCN2C(=O)[C@H](CCC(=O)O)NC(=O)[C@@H](NC(=O)[C@H](Cc2ccc(O)cc2)NC(=O)[C@@H](NC(=O)CN2CCC(NC(=O)CN3CCN(CC(=O)O)CCN(CC(=O)O)CCN(CC(=O)O)CC3)CC2)C(C)C)CSCc2cccc(c2)CSC[C@@H](C(N)=O)NC(=O)[C@H](CO)NC(=O)[C@H](Cc2c[nH]c3ccccc23)NC(=O)[C@H]([C@@H](C)O)NC1=O` [3BP-4239] ({DOTA}-[X2]VYCE[dP]D[X54]LTWSC-NH2; linker 4-13 via mXylylene): 10 to 79.4 nM; for `CC(C)C[C@@H]1NC(=O)[C@H](Cc2cccc(NC(=O)c3c[nH]cn3)c2)NC(=O)[C@H](CC(=O)O)NC(=O)[C@H]2CCCN2C(=O)[C@H](CCC(=O)O)NC(=O)[C@@H](NC(=O)[C@H](Cc2ccc(O)cc2)NC(=O)[C@@H](NC(=O)CN2CCC(NC(=O)CN3CCN(CC(=O)O)CCN(CC(=O)O)CCN(CC(=O)O)CC3)CC2)C(C)C)CSCc2cccc(c2)CSC[C@@H](C(N)=O)NC(=O)[C@H](CO)NC(=O)[C@H](Cc2c[nH]c3ccccc23)NC(=O)[C@H]([C@@H](C)O)NC1=O` [3BP-4240] ({DOTA}-[X2]VYCE[dP]D[X62]LTWSC-NH2; linker 4-13 via mXylylene): 10 to 79.4 nM; for `CC(C)C[C@@H]1NC(=O)[C@H](Cc2cccc(NC(=O)[C@@H]3CCC(=O)N3)c2)NC(=O)[C@H](CC(=O)O)NC(=O)[C@H]2CCCN2C(=O)[C@H](CCC(=O)O)NC(=O)[C@@H](NC(=O)[C@H](Cc2ccc(O)cc2)NC(=O)[C@@H](NC(=O)CN2CCC(NC(=O)CN3CCN(CC(=O)O)CCN(CC(=O)O)CCN(CC(=O)O)CC3)CC2)C(C)C)CSCc2cccc(c2)CSC[C@@H](C(N)=O)NC(=O)[C@H](CO)NC(=O)[C@H](Cc2c[nH]c3ccccc23)NC(=O)[C@H]([C@@H](C)O)NC1=O` [3BP-4241] ({DOTA}-[X2]VYCE[dP]D[X63]LTWSC-NH2; linker 4-13 via mXylylene): 10 to 79.4 nM.

The test is the same for the next values; noted with them: FACS binding assay, HT-29 cells, competition with tracer 3BP-4149 (3 nM, Cy5-labeled), 4° C., 1 hour; read-out: pIC50 category (activity) (converted).
For the molecule `CC(C)C[C@@H]1NC(=O)[C@H](Cc2c[nH]c3ccccc23)NC(=O)[C@H](CC(=O)O)NC(=O)[C@H]2CCCN2C(=O)[C@H](CCC(=O)O)NC(=O)[C@@H]2CSCc3cccc(c3)CSC[C@@H](C(N)=O)NC(=O)[C@H](CNC(=O)C[C@H](NC(=O)COCCOCCNC(=O)CN3CCN(CC(=O)O)CCN(CC(=O)O)CCN(CC(=O)O)CC3)C(=O)N2)NC(=O)[C@H](Cc2c[nH]c3ccccc23)NC(=O)[C@H]([C@@H](C)O)NC1=O` [3BP-4262] ({DOTA-AEEA}-DCE[dP]DWLTW[Dap]C-NH2; lactam 1-10; linker 2-11 via mXylylene), the IC50 is 10 to 79.4 nM.
The same measure, in the same setting: the value for `CC(C)C[C@@H]1NC(=O)[C@H](Cc2c[nH]c3ccccc23)NC(=O)[C@H](CCC(=O)NCc2ccc3cnccc3c2)NC(=O)[C@H]2CCCN2C(=O)[C@H](CCC(=O)O)NC(=O)[C@@H](NC(=O)[C@H](Cc2ccc(O)cc2)NC(=O)[C@@H](NC(=O)CN2CCC(NC(=O)CN3CCN(CC(=O)O)CCN(CC(=O)O)CCN(CC(=O)O)CC3)CC2)C(C)C)CSCc2cccc(c2)CSC[C@@H](C(N)=O)NC(=O)[C@H](CO)NC(=O)[C@H](Cc2c[nH]c3ccccc23)NC(=O)[C@H]([C@@H](C)O)NC1=O` [3BP-4328] ({DOTA}-[X2]VYCE[dP]E(X64)WLTWSC-NH2; linker 4-13 via mXylylene) was 100 to 794 nM; that for `CC(C)C[C@@H]1NC(=O)[C@H](Cc2c[nH]c3ccccc23)NC(=O)[C@H](CCC(=O)NCc2ccc(S(C)(=O)=O)cc2)NC(=O)[C@H]2CCCN2C(=O)[C@H](CCC(=O)O)NC(=O)[C@@H](NC(=O)[C@H](Cc2ccc(O)cc2)NC(=O)[C@@H](NC(=O)CN2CCC(NC(=O)CN3CCN(CC(=O)O)CCN(CC(=O)O)CCN(CC(=O)O)CC3)CC2)C(C)C)CSCc2cccc(c2)CSC[C@@H](C(N)=O)NC(=O)[C@H](CO)NC(=O)[C@H](Cc2c[nH]c3ccccc23)NC(=O)[C@H]([C@@H](C)O)NC1=O` [3BP-4333] ({DOTA}-[X2]VYCE[dP]E(X58)WLTWSC-NH2; linker 4-13 via mXylylene) was 10 to 79.4 nM.
Still for that read-out and setting: the value for `COCc1cc(CNC(=O)CC[C@@H]2NC(=O)[C@H]3CCCN3C(=O)[C@H](CCC(=O)O)NC(=O)[C@@H](NC(=O)[C@H](Cc3ccc(O)cc3)NC(=O)[C@@H](NC(=O)CN3CCC(NC(=O)CN4CCN(CC(=O)O)CCN(CC(=O)O)CCN(CC(=O)O)CC4)CC3)C(C)C)CSCc3cccc(c3)CSC[C@@H](C(N)=O)NC(=O)[C@H](CO)NC(=O)[C@H](Cc3c[nH]c4ccccc34)NC(=O)[C@H]([C@@H](C)O)NC(=O)[C@H](CC(C)C)NC(=O)[C@H](Cc3c[nH]c4ccccc34)NC2=O)on1` [3BP-4339] ({DOTA}-[X2]VYCE[dP]E(X45)WLTWSC-NH2; linker 4-13 via mXylylene) was 10 to 79.4 nM; that for `CC(C)C[C@@H]1NC(=O)[C@H](Cc2c[nH]c3ccccc23)NC(=O)[C@H](CCC(=O)NCc2ccc(C#N)cc2)NC(=O)[C@H]2CCCN2C(=O)[C@H](CCC(=O)O)NC(=O)[C@@H](NC(=O)[C@H](Cc2ccc(O)cc2)NC(=O)[C@@H](NC(=O)CN2CCC(NC(=O)CN3CCN(CC(=O)O)CCN(CC(=O)O)CCN(CC(=O)O)CC3)CC2)C(C)C)CSCc2cccc(c2)CSC[C@@H](C(N)=O)NC(=O)[C@H](CO)NC(=O)[C@H](Cc2c[nH]c3ccccc23)NC(=O)[C@H]([C@@H](C)O)NC1=O` [3BP-4340] ({DOTA}-[X2]VYCE[dP]E(X70)WLTWSC-NH2; linker 4-13 via mXylylene) was 10 to 79.4 nM.
For `CC(C)C[C@@H]1NC(=O)[C@H](Cc2c[nH]c3ccccc23)NC(=O)[C@H](CCC(=O)NCc2ccc(C(N)=O)cc2)NC(=O)[C@H]2CCCN2C(=O)[C@H](CCC(=O)O)NC(=O)[C@@H](NC(=O)[C@H](Cc2ccc(O)cc2)NC(=O)[C@@H](NC(=O)CN2CCC(NC(=O)CN3CCN(CC(=O)O)CCN(CC(=O)O)CCN(CC(=O)O)CC3)CC2)C(C)C)CSCc2cccc(c2)CSC[C@@H](C(N)=O)NC(=O)[C@H](CO)NC(=O)[C@H](Cc2c[nH]c3ccccc23)NC(=O)[C@H]([C@@H](C)O)NC1=O` [3BP-4345] ({DOTA}-[X2]VYCE[dP]E([4Amb-NH2])WLTWSC-NH2; linker 4-13 via mXylylene), the IC50 is 10 to 79.4 nM.
Still for that read-out and setting: the value for `CCC(=O)Nc1ccc(C[C@@H]2NC(=O)[C@H](CC(=O)O)NC(=O)[C@H]3CCCN3C(=O)[C@H](CCC(=O)O)NC(=O)[C@@H](NC(=O)[C@H](Cc3ccc(O)cc3)NC(=O)[C@@H](NC(=O)CN3CCC(NC(=O)CN4CCN(CC(=O)O)CCN(CC(=O)O)CCN(CC(=O)O)CC4)CC3)C(C)C)CSCc3cccc(c3)CSC[C@@H](C(N)=O)NC(=O)[C@H](CO)NC(=O)[C@H](Cc3c[nH]c4ccccc34)NC(=O)[C@H]([C@@H](C)O)NC(=O)[C@H](CC(C)C)NC2=O)cc1` [3BP-4347] ({DOTA}-[X2]VYCE[dP]D[Phe(4-NH2)](Propionyl)LTWSC-NH2; linker 4-13 via mXylylene) was 100 to 794 nM.
